Patent publication US10364263B2, “Cyclic phosphates and cyclic phosphoramidates for the treatment of neurologic disorders” (Retrophin, Inc., priority 2015, dated 2019)
Where two headings read alike, the source gives them in different places.

Experiments:
[1] = Permeability in porcine brain endothelial cell blood-brain barrier model; type: in vitro ADME; conditions: pig (endothelial cells), co-cultured with rat astrocytes, pH 7.4, PBECs/As blood-brain barrier model, luminal to basal
Description: Compounds disclosed herein show the potential to reach mammalian brain by crossing the blood-brain barrier (BBB) from systemic circulation. […] The porcine brain endothelial cell permeability assay is an in vitro BBB model to be used for the prediction of central nervous system (CNS) drug permeability in vivo and for ranking or prioritization of compounds according to their permeability. This system can also be used for mechanistic studies and drug delivery strategies via receptor-mediated transport (transcytosis). The system is a two-dimensional co-culture, non-contact model of two types of primary cells: primary brain endothelial cells obtained from fresh porcine brains, and primary rat astrocytes, obtained from neonatal rats. This ensures barrier formation and functional expression of key transporters.
The endothelial cells were cultured on rat-tail collagen type I and human fibronectin coated Transwell polycarbonate inserts (surface area 0.7 cm^2; pore size 0.4 μm) and the inserts were placed in 24-well plates containing confluent rat astrocytes. This system allows for the formation of a differentiated BBB model suitable for compound permeability in 10 days.
On the day of the experiment, culture medium was removed and cells were pre-incubated for 30 min with HBSS containing 20 mM Hepes pH 7.4 and 0.1% BSA. Donor volume (apical) was 400 μl and receiver volume (basal) 900 μl. Compounds were diluted in assay medium (at the desired concentration) and added to the luminal side (to mimic blood to brain passage). Transport was measured usually after 60 min by detecting the amount of compound from the basal (brain side). The integrity of the cell layers was assessed by measuring the transendothelial electrical resistance (TEER) and by monitoring FITC-dextran (40 KDa) permeation. Inserts with TEER values […] were selected for permeability studies. As FITC-dextran cannot freely permeate lipophilic barriers, a high degree of FITC-dextran transport indicates poor integrity of the cell layer and wells with high FITC-dextran permeability were excluded. FITC-dextran was included as internal control in each insert used for permeability studies. Fluorescence was measured using a fluorimetric detector. Radioactivity was measured by scintillation counting. For LC-MS/MS analysis, aliquots (200 μl) from the basal compartment were diluted with an equal volume of 100% acetonitrile containing 0.1% formic acid, centrifuged to remove cell debris, and evaporated under N2. After reconstitution, samples were analyzed by LC-MS/MS. Mass balance was determined considering the amount of compound recovered in the donor and receiver chamber at the end of the assay relative to the amount added to the donor chamber at time 0.
Permeability was defined as the apparent permeability coefficient (Papp), which is a measure of the appearance rate of the compound in the receiver chamber, expressed in cm/s. Papp is calculated according the following equation: Papp[cm/sec]=Vd*ΔMr/A*Md*Δt, Equation 2: where
Vd=volume in the donor compartment in cm^3 or mL;
ΔMr=total amount of compound in the receiver compartment after t seconds;
Md=donor amount (added at time 0)
Δt=time measured in seconds
A=filter area in cm^2 (for 24 well plate, A=0.7 cm^2).
To correct for the contribution of filter and substrate, Papp was also determined for the cell-free system. Permeability of the endothelial cell layer was determined using the following equation: […], Equation 3: where
Ptotal=the P of the total system,
Pf=P for the cell-free filter, and
Pe=P for the endothelial cell layer alone. In this equation, the total resistance of the system towards passage of a substance is additively composed of two […] resistances: that of the cell monolayer and that of the filter.

[2] = Stability in mouse hepatocytes; type: in vitro ADME
Description: (§1) Stability in hepatocytes for select compounds disclosed in the application was evaluated in two species (mouse and human) according to the following procedure. Compounds and positive control samples were dissolved in 100% DMSO at 5 mM. Cryopreserved hepatocytes were thawed and resuspended in Hepatocyte Basal Medium (HBM-Lonza CC-3199) supplemented with CC-4182 (complete hepatocyte culture medium). Test compounds were diluted into cell suspension (1 million cells/ml) from the stock solutions to have a test compound concentration of 5 μM (0.1% DMSO). Incubation was performed in 24-well plates, at 37° C. in a DUBNOFF water bath, under low shaking. Each compound was tested at 6 time points, in duplicates (0, 15, 30, 60, 120 and 240 min). At each time point, an aliquot of 120 μl was taken and transferred to a 96-well deep plate. The reaction was stopped with the addition of one volume of 100% acetonitrile plus 0.1% formic acid and the appropriate internal standard. Then samples were centrifuged at 1100×g for 30 min at +4° C. and supernatants were transferred to a new 96-deepwell plate. Samples were evaporated under N2 and reconstituted in H2O/ACN 0.1% Formic Acid (98:2). Analysis was performed without a calibration curve (Acquity UPLC-Waters; Sciex API4000). Time 0 was obtained adding acetonitrile before addition of the test compound. […] The half-life (t1/2) expressed in hours is derived using Equation 1 as shown in Example 64.

[3] = Stability in human hepatocytes; type: in vitro ADME; conditions: for half-life at 5 µM: t1/2, Human Hepatocytes
Description: as §1

[4] = tested on: PANK2 silenced human neuroblastoma IMR32 cells (PANK2−/−); experiment: Coenzyme A assay in PANK2 silenced cells (LC-MS quantification of free CoA); type: cell-based; conditions: compound added twice (24 h + 24 h), relative to 0.1% DMSO controls
In short: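 Free intracellular CoA was measured by positive-mode LC-MS/MS of 20% TFA extracts, taking 2 μl per 10^6 cells as intracellular volume. Cells were IMR32 with stable lentiviral PANK2 knockdown, dosed twice 24 h apart (48 h total, 0.1% DMSO). Output is fold increase over vehicle.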

[5] = Stability in human plasma; type: in vitro ADME; conditions: human, plasma, 37° C.
In short: (§2)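 Test compound at 3 μM (0.1% DMSO) was incubated in mouse or human plasma at 37 °C and sampled in duplicate at 0, 10, 20, 30, 40 and 60 min. Reactions were stopped with acetonitrile/formic acid containing internal standard. Remaining parent was measured by UPLC-MS/MS without a calibration curve.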

[6] = Stability in mouse plasma; type: in vitro ADME; conditions: mouse, plasma; for t1/2, Mouse Plasma, Diastereoisomer B: 3 µM
In short: as §2

[7] = Diastereoisomer A, read-out: Papp Diastereoisomer A
[8] = t1/2, Mouse Hepatocytes, Diastereoisomer A
[9] = t1/2, Mouse Hepatocytes, Diastereoisomer B
[10] = Diastereoisomer A (upfield shift in 31P NMR), read-out: t1/2, Human Plasma, Diastereoisomer A (converted)
[11] = Diastereoisomer B, read-out: t1/2, Human Plasma, Diastereoisomer B (converted)

SMILES | Papp A→B at 60 min [1, 7] [×10⁻⁶ cm/s] | half-life at 5 µM [2, 8] [min] | half-life at 5 µM ([3]; Diastereoisomer A) [min] | Papp A→B at 60 min ([1]; Diastereoisomer B, read-out: Papp Diastereoisomer B) [×10⁻⁶ cm/s] | half-life at 5 µM [2, 9] [min] | half-life at 5 µM ([3]; Diastereoisomer B) [min] | half-life at 3 µM [5, 10] [min] | half-life at 3 µM [6] [min] | half-life at 3 µM [5, 11] [min] | t1/2, Mouse Plasma, Diastereoisomer B [6] [min] | PANK2−/− CoA (Fold Increase): fold increase in Coenzyme A (CoA) levels relative to controls [4] [Fold Increase] | half-life at 5 µM ([2]; Diastereoisomer A (upfield shift in 31P NMR), 5 μM, 1 million cells/ml, 37° C., mouse hepatocytes, read-out: t1/2, Mouse Hepatocytes, Diastereoisomer A (converted)) [min] | half-life ([3]; Diastereoisomer A (upfield shift in 31P NMR), 5 μM, 1 million cells/ml, 37° C., human hepatocytes, read-out: t1/2, Human Hepatocytes, Diastereoisomer A (converted)) [min]
CCc1cc(C(=O)OCO[P@@]2(=O)OCC(C)(C)[C@H](C(=O)NCCC(=O)OC)O2)n(C)n1 (single isomer, unassigned) [Compound No. 2-127] | 11.8 | < 15 | 17.4 |  |  |  |  |  |  |  | 14.41 |  | 
COC(=O)CCNC(=O)[C@@H]1O[P@@](=O)(OCN2C(=O)c3ccccc3S2(=O)=O)OCC1(C)C (single isomer, unassigned) [Compound No. 2-126] | 2.74 |  |  |  |  |  |  |  |  |  | 138.56 |  | 
CCc1cc(C(=O)OCO[P@]2(=O)OCC(C)(C)[C@H](C(=O)NCCC(=O)OC)O2)n(C)n1 (single isomer, unassigned) [Compound No. 2-129] |  |  |  | 11.5 | < 15 | < 15 |  |  |  |  | 88.66 |  | 
COC(=O)CCNC(=O)[C@@H]1OP(=O)(NCCc2ccncc2)OCC1(C)C (stereo partly drawn) [compound 111, methyl 3-((4R)-5,5-dimethyl-2-oxido-2-((2-(pyridin-4-yl)ethyl)amino)-1,3,2-dioxaphosphinane-4-carboxamido)propanoate] | 0.7 |  |  |  |  |  |  |  |  |  |  | 28.8 | 171
CC(C)OC(=O)OCO[P@@]1(=O)OCC(C)(C)[C@H](C(=O)NCCC(=O)O)O1 [2-130, 3-((2S,4R)-2-(((isopropoxycarbonyl)oxy)methoxy)-5,5-dimethyl-2-oxido-1,3,2-dioxaphosphinane-4-carboxamido)propanoic acid] | 1.84 |  |  |  |  |  |  |  |  |  | 43.5 |  | 
COC(=O)CCNC(=O)[C@@H]1O[P@@](=O)(OCC(F)(F)F)OCC1(C)C [2-138, methyl 3-((2R,4R)-5,5-dimethyl-2-oxido-2-(2,2,2-trifluoroethoxy)-1,3,2-dioxaphosphinane-4-carboxamido)propanoate] | 15.6 |  | > 240 |  |  |  |  |  |  |  | 1.13 |  | 
CC(C)(C)C(=O)OCOP1(=O)OCC(C)(C)[C@H](C(=O)NCCC(=O)OCc2ccncc2)O1 (stereo in doubt) [Compound No. 71, (((2S,4R)-5,5-dimethyl-2-oxido-4-((3-oxo-3-(pyridin-4-ylmethoxy)propyl)carbamoyl)-1,3,2-dioxaphosphinan-2-yl)oxy)methyl pivalate] |  | < 15 | < 15 |  | < 15 | < 15 | > 60 | < 9.6 | < 9.6 | <9.6 | 39.37 |  | 

Second part, led by results:

Papp A→B at 60 min [1, 7] [×10⁻⁶ cm/s] | half-life at 5 µM [2, 8] [min] | half-life at 5 µM ([3]; Diastereoisomer A) [min] | Papp A→B at 60 min ([1]; Diastereoisomer B, read-out: Papp Diastereoisomer B) [×10⁻⁶ cm/s] | half-life at 5 µM [2, 9] [min] | half-life at 5 µM ([3]; Diastereoisomer B) [min] | half-life at 3 µM [5, 10] [min] | half-life at 3 µM [6] [min] | half-life at 3 µM [5, 11] [min] | t1/2, Mouse Plasma, Diastereoisomer B [6] [min] | SMILES | PANK2−/− CoA (Fold Increase): fold increase in Coenzyme A (CoA) levels relative to controls [4] [Fold Increase] | half-life at 5 µM ([2]; Diastereoisomer A (upfield shift in 31P NMR), 5 μM, 1 million cells/ml, 37° C., mouse hepatocytes, read-out: t1/2, Mouse Hepatocytes, Diastereoisomer A (converted)) [min] | half-life ([3]; Diastereoisomer A (upfield shift in 31P NMR), 5 μM, 1 million cells/ml, 37° C., human hepatocytes, read-out: t1/2, Human Hepatocytes, Diastereoisomer A (converted)) [min]
 | 36 | > 240 |  |  |  | > 60 | < 9.6 |  |  | COC(=O)CCNC(=O)[C@@H]1OP(=O)(N[C@@H](Cc2cccnc2)C(=O)OC)OCC1(C)C (stereo partly drawn) [compound 25, (2S)-methyl 2-(((4R)-4-((3-methoxy-3-oxopropyl)carbamoyl)-5,5-dimethyl-2-oxido-1,3,2-dioxaphosphinan-2-yl)amino)-3-(pyridin-3-yl)propanoate] | 0.95 |  | 
 | 70.8 | > 240 |  | 33 | > 240 | < 9.6 | < 9.6 | 57.6 | <9.6 | COC(=O)CCNC(=O)[C@@H]1OP(=O)(N[C@@H](C)C(=O)OC[C@H]2CCC(=O)N2)OCC1(C)C (stereo partly drawn) [compound 23, methyl 3-((4R)-5,5-dimethyl-2-oxido-2-(((S)-1-oxo-1-(((R)-5-oxopyrrolidin-2-yl)methoxy)propan-2-yl)amino)-1,3,2-dioxaphosphinane-4-carboxamido)propanoate] | 2.08 |  | 
18.1 | < 15 | < 15 |  |  |  |  |  |  |  | COC(=O)CCNC(=O)[C@@H]1O[P@](=O)(OCc2ccccc2)OCC1(C)C [compound 54, methyl 3-((2R,4R)-2-(benzyloxy)-5,5-dimethyl-2-oxido-1,3,2-dioxaphosphinane-4-carboxamido)propanoate] |  |  | 
 | < 15 | < 15 |  |  |  | < 9.6 | < 9.6 |  |  | COC(=O)CCNC(=O)[C@@H]1O[P@](=O)(OCOC(=O)C(C)(C)C)OCC1(C)C (single isomer, unassigned) [Compound No. 89] | 154.1 |  | 
 | < 15 | 18.6 |  | < 15 | < 15 | > 60 | < 9.6 | > 60 | <9.6 | COC(=O)CCNC(=O)[C@@H]1OP(=O)(N[C@@H](Cc2ccc(OC(C)(C)C)cc2)C(=O)OC(C)(C)C)OCC1(C)C (stereo partly shown) [compound 15] | 0.5 |  | 
